Measured values published in PubChem BioAssay AID248 (DTP/NCI, 2004).
Several values for one entry are separate records, joined by “and”; a condition that tells them apart may be missing. Equal entries are not always repeated. Inconclusive results and toxic doses are left out. No stated cut-off is given here; in the data, active means T/C of 150% or more; inactive means T/C below 125%.

Test system: L1210 leukemia ip in BDF1 mice, survival T/C
Experiment: NCI In Vivo Anticancer Drug Screen. Data for tumor model L1210 Leukemia (intraperitoneal) in B6D2F1 (BDF1) mice
Details: endpoint: mean survival time, higher = longer survival
Method in brief: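 In this screen, tumor-bearing mice given compound are compared to those given vehicle, and their survival values are reported as a treated-to-control quotient.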

[1] = dose: 100.0 mg/kg/injection, schedule: Q01DX001 (ip), vehicle: other
[2] = dose: 200.0 mg/kg/injection, schedule: Q01DX001 (ip), vehicle: other
[3] = dose: 400.0 mg/kg/injection, schedule: Q01DX001 (ip), vehicle: other
[4] = dose: 100.0 mg/kg/injection, schedule: Q01DX009 (ip), vehicle: saline with Tween-80
[5] = dose: 100.0 mg/kg/injection, schedule: Q04DX002 (ip), vehicle: saline with Tween-80
[6] = dose: 200.0 mg/kg/injection, schedule: Q01DX009 (ip), vehicle: saline with Tween-80
[7] = dose: 200.0 mg/kg/injection, schedule: Q04DX002 (ip), vehicle: saline with Tween-80
[8] = dose: 400.0 mg/kg/injection, schedule: Q01DX009 (ip), vehicle: saline with Tween-80
[9] = dose: 400.0 mg/kg/injection, schedule: Q04DX002 (ip), vehicle: saline with Tween-80
[10] = dose: 100.0 mg/kg/injection, schedule: Q01DX009 (ip), vehicle: Klucel (hydroxypropylcellulose) (HPC)
[11] = dose: 200.0 mg/kg/injection, schedule: Q01DX009 (ip), vehicle: Klucel (hydroxypropylcellulose) (HPC)
[12] = dose: 100.0 mg/kg/injection, schedule: Q01DX001 (ip), vehicle: saline
[13] = dose: 100.0 mg/kg/injection, schedule: Q01DX009 (ip), vehicle: saline
[14] = dose: 200.0 mg/kg/injection, schedule: Q01DX001 (ip), vehicle: saline
[15] = dose: 200.0 mg/kg/injection, schedule: Q01DX009 (ip), vehicle: saline
[16] = dose: 400.0 mg/kg/injection, schedule: Q01DX001 (ip), vehicle: saline
[17] = dose: 400.0 mg/kg/injection, schedule: Q01DX009 (ip), vehicle: saline
[18] = dose: 100.0 mg/kg/injection, schedule: Q04DX003 (ip), vehicle: Klucel (hydroxypropylcellulose) (HPC)
[19] = dose: 200.0 mg/kg/injection, schedule: Q04DX003 (ip), vehicle: Klucel (hydroxypropylcellulose) (HPC)
[20] = dose: 400.0 mg/kg/injection, schedule: Q04DX003 (ip), vehicle: Klucel (hydroxypropylcellulose) (HPC)
[21] = dose: 75.0 mg/kg/injection, schedule: Q01DX001 (ip), vehicle: carboxymethylcellulose (CMC)
[22] = dose: 50.0 mg/kg/injection, schedule: Q01DX009 (ip), vehicle: saline with Tween-80

Measured: T/C

CCCCCCCCOC(=O)c1[nH]cnc1/N=N/N(C)C1CCCCC1
inactive: [1] 93 % of control | [2] 96 % of control | [3] 91 % of control

COc1ccc(Cl)c(NC(=O)Nc2cc(Cl)ccc2C)c1
inactive: [4] 94 % of control and 95 % of control | [5] 98 % of control and 91 % of control | [6] 90 % of control | [7] 95 % of control and 91 % of control | [8] 93 % of control | [9] 87 % of control and 90 % of control

CCC(C)C(=Nc1ccc(Cl)c(Cl)c1)N(C)C (configuration not stated)
inactive: dose: 55.0 mg/kg/injection, schedule: Q01DX Z (ip), vehicle: methylcellulose (MC) 102 % of control | dose: 83.0 mg/kg/injection, schedule: Q01DX Z (ip), vehicle: methylcellulose (MC) 96 % of control | dose: 125.0 mg/kg/injection, schedule: Q01DX Z (ip), vehicle: methylcellulose (MC) 104 % of control

Fc1ccc(C(c2ccc(F)cc2)C(Cl)Cl)cc1
inactive: [4] 95 % of control | [6] 97 % of control | [8] 93 % of control

COC(=O)/C=C/Nc1ccccc1
inactive: dose: 100.0 mg/kg/injection, schedule: Q04DX003 (ip), vehicle: other 98 % of control | dose: 200.0 mg/kg/injection, schedule: Q04DX003 (ip), vehicle: other 98 % of control | dose: 400.0 mg/kg/injection, schedule: Q04DX003 (ip), vehicle: other 94 % of control

CCOC(=O)NC(C)(CC)c1ccccc1 (configuration not stated)
inactive: [1] 105 % of control | [2] 109 % of control | [3] 117 % of control

Cc1cc2nc(/C(C#N)=C/c3cc(Cl)cc(Cl)c3O)[nH]c2cc1C
inactive: dose: 100.0 mg/kg/injection, schedule: Q01DX009 (ip), vehicle: other 93 % of control | dose: 200.0 mg/kg/injection, schedule: Q01DX009 (ip), vehicle: other 104 % of control | dose: 400.0 mg/kg/injection, schedule: Q01DX009 (ip), vehicle: other 93 % of control

Nc1cc(Cl)nc(-c2ccccc2)n1
inactive: dose: 50.0 mg/kg/injection, schedule: Q01DX009 (ip), vehicle: Klucel (hydroxypropylcellulose) (HPC) 98 % of control | [10] 98 % of control | [11] 102 % of control

COc1ccc(OC)c(C2(O)C=C(C)C(=O)C=C2C)c1 (configuration not stated)
inactive: dose: 150.0 mg/kg/injection, schedule: Q01DX001 (ip), vehicle: Klucel (hydroxypropylcellulose) (HPC) 91 % of control | dose: 300.0 mg/kg/injection, schedule: Q01DX001 (ip), vehicle: Klucel (hydroxypropylcellulose) (HPC) 91 % of control

CCOC(=O)c1n[nH]c2ccccc12
inactive: [5] 101 % of control | [7] 106 % of control | [9] 97 % of control

Nc1nc2ncc(NCc3ccc(C(=O)NC(CCC(=O)O)C(=O)O)cc3)nc2c(=O)[nH]1 (configuration not stated)
inactive: [12] 92 % of control | [13] 103 % of control | dose: 100.0 mg/kg/injection, schedule: Q04DX002 (ip), vehicle: saline 96 % of control and 100 % of control | [14] 91 % of control | [15] 100 % of control | dose: 200.0 mg/kg/injection, schedule: Q04DX002 (ip), vehicle: saline 100 % of control and 102 % of control | [16] 100 % of control | [17] 96 % of control | dose: 400.0 mg/kg/injection, schedule: Q04DX002 (ip), vehicle: saline 100 % of control and 105 % of control

COc1cccc(N=CN(C)C)c1
inactive: dose: 50.0 mg/kg/injection, schedule: Q01DX001 (ip), vehicle: saline 90 % of control | [12] 104 % of control

Clc1ccc(-c2cc(=[N+]3CCC4(CC3)SSC3(CC[N+](=c5cc(-c6ccc(Cl)cc6)ss5)CC3)S4)ss2)cc1 (configuration not stated)
inactive: dose: 25.0 mg/kg/injection, schedule: Q01DX009 (ip), vehicle: water 90 % of control | dose: 50.0 mg/kg/injection, schedule: Q01DX009 (ip), vehicle: water 90 % of control | dose: 100.0 mg/kg/injection, schedule: Q01DX009 (ip), vehicle: water 88 % of control | dose: 400.0 mg/kg/injection, schedule: Q01DX009 (ip), vehicle: water 87 % of control

O=C(NCCCl)Nc1cccc2c(O)cccc12
inactive: [18] 98 % of control | [19] 96 % of control | [20] 107 % of control

CCCCCCCCCCCCCCCCCC(=O)Oc1cccc2cccnc12
inactive: [5] 93 % of control | [7] 93 % of control | [9] 106 % of control

C#CC1(OC(C)=O)CCCCC1
inactive: [12] 102 % of control | dose: 100.0 mg/kg/injection, schedule: Q04DX003 (ip), vehicle: saline with Tween-80 105 % of control | [14] 95 % of control | dose: 200.0 mg/kg/injection, schedule: Q04DX003 (ip), vehicle: saline with Tween-80 98 % of control | [16] 100 % of control | dose: 400.0 mg/kg/injection, schedule: Q04DX003 (ip), vehicle: saline with Tween-80 93 % of control

CCCC(CCC)=NCCCO
inactive: [21] 96 % of control | dose: 150.0 mg/kg/injection, schedule: Q01DX001 (ip), vehicle: carboxymethylcellulose (CMC) 102 % of control

Cc1cc2oc(/C=C/C(=O)c3ccc([N+](=O)[O-])cc3)c(C)c2cc1C
inactive: [18] 97 % of control | [19] 90 % of control | [20] 100 % of control

COC(=O)c1ccccc1NC(=O)c1c(-c2ccccc2Cl)noc1C
inactive: [10] 99 % of control | [11] 94 % of control | dose: 400.0 mg/kg/injection, schedule: Q01DX009 (ip), vehicle: Klucel (hydroxypropylcellulose) (HPC) 98 % of control

CN(C)c1n[nH]c(N=[N+]=[N-])n1
inactive: [5] 104 % of control | [7] 90 % of control | [9] 104 % of control

O=S1(=O)CC(S(=O)(=O)O)C(S(=O)(=O)O)C1 (configuration not stated)
inactive: dose: 50.0 mg/kg/injection, schedule: Q01DX009 (ip), vehicle: saline 110 % of control | [13] 103 % of control | [15] 99 % of control | [17] 93 % of control

Cc1onc(-c2ccccc2Cl)c1C(=O)NC(=S)NC1CC(C)CC(C)(C)C1 (configuration not stated)
inactive: dose: 25.0 mg/kg/injection, schedule: Q04DX002 (ip), vehicle: saline with Tween-80 97 % of control | dose: 50.0 mg/kg/injection, schedule: Q04DX002 (ip), vehicle: saline with Tween-80 90 % of control | [5] 90 % of control

CCCCCCC(=O)CCCCCCCCCCCCC(=O)OC
inactive: [8] 88 % of control

NC(CSS(=O)(=O)O)=NCCCCOc1ccccc1
inactive: dose: 6.25 mg/kg/injection, schedule: Q04DX002 (ip), vehicle: Klucel (hydroxypropylcellulose) (HPC) 111 % of control | dose: 12.5 mg/kg/injection, schedule: Q04DX002 (ip), vehicle: Klucel (hydroxypropylcellulose) (HPC) 89 % of control | dose: 25.0 mg/kg/injection, schedule: Q04DX002 (ip), vehicle: Klucel (hydroxypropylcellulose) (HPC) 108 % of control | dose: 100.0 mg/kg/injection, schedule: Q04DX002 (ip), vehicle: Klucel (hydroxypropylcellulose) (HPC) 97 % of control

CC12CCC3c4ccc(OCC5CO5)cc4CCC3C1CCC2=O (configuration not stated)
inactive: [22] 97 % of control | [4] 97 % of control | [6] 94 % of control

CC(CN1c2ccccc2Sc2ccc(Cl)cc21)N(C)CCCl (configuration not stated)
inactive: [21] 106 % of control and 114 % of control

CC1CC(C)(C)CC2(C1)OCCCO2 (configuration not stated)
inactive: [22] 90 % of control | [4] 102 % of control | [6] 98 % of control

Cn1cnc(C(N)=S)c1N
inactive: [13] 98 % of control | dose: 100.0 mg/kg/injection, schedule: Q04DX003 (ip), vehicle: saline 107 % of control | [15] 105 % of control | dose: 200.0 mg/kg/injection, schedule: Q04DX003 (ip), vehicle: saline 102 % of control | [17] 96 % of control | dose: 400.0 mg/kg/injection, schedule: Q04DX003 (ip), vehicle: saline 105 % of control
